Test results reported in PubChem BioAssay AID256 (DTP/NCI, 2004).
Inconclusive results and toxic doses are left out. How the source made its calls: active means survival T/C of 150% or more; inactive means T/C below 125% in these data.

Test system: CD2F1 mice, L1210 leukemia ip, survival T/C
Experiment: NCI In Vivo Anticancer Drug Screen. Data for tumor model L1210 Leukemia (intraperitoneal) in CD2F1 (CDF1) mice
Conditions: endpoint: mean survival time, higher = longer survival
How it was run: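 Compound-dosed mice with transplantable tumor versus matched vehicle controls; endpoint ratio T/C reported.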

[1] = dose: 100.0 mg/kg/injection, schedule: Q04DX002 (ip), vehicle: saline with Tween-80
[2] = dose: 200.0 mg/kg/injection, schedule: Q04DX002 (ip), vehicle: saline with Tween-80
[3] = dose: 100.0 mg/kg/injection, schedule: Q01DX009 (ip), vehicle: saline with Tween-80
[4] = dose: 100.0 mg/kg/injection, schedule: Q04DX003 (ip), vehicle: saline with Tween-80
[5] = dose: 200.0 mg/kg/injection, schedule: Q01DX009 (ip), vehicle: saline with Tween-80
[6] = dose: 200.0 mg/kg/injection, schedule: Q04DX003 (ip), vehicle: saline with Tween-80
[7] = dose: 400.0 mg/kg/injection, schedule: Q04DX003 (ip), vehicle: saline with Tween-80
[8] = dose: 100.0 mg/kg/injection, schedule: Q04DX003 (ip), vehicle: Klucel (hydroxypropylcellulose) (HPC)
[9] = dose: 200.0 mg/kg/injection, schedule: Q04DX003 (ip), vehicle: Klucel (hydroxypropylcellulose) (HPC)
[10] = dose: 400.0 mg/kg/injection, schedule: Q04DX003 (ip), vehicle: Klucel (hydroxypropylcellulose) (HPC)
[11] = dose: 400.0 mg/kg/injection, schedule: Q01DX009 (ip), vehicle: saline with Tween-80
[12] = dose: 100.0 mg/kg/injection, schedule: Q01DX001 (ip), vehicle: saline
[13] = dose: 25.0 mg/kg/injection, schedule: Q01DX009 (ip), vehicle: water
[14] = dose: 50.0 mg/kg/injection, schedule: Q01DX009 (ip), vehicle: water
[15] = dose: 100.0 mg/kg/injection, schedule: Q01DX009 (ip), vehicle: water
[16] = dose: 200.0 mg/kg/injection, schedule: Q01DX009 (ip), vehicle: water
[17] = dose: 400.0 mg/kg/injection, schedule: Q01DX009 (ip), vehicle: water
[18] = dose: 12.5 mg/kg/injection, schedule: Q01DX009 (ip), vehicle: saline with Tween-80
[19] = dose: 50.0 mg/kg/injection, schedule: Q04DX002 (ip), vehicle: saline with Tween-80

Measured: T/C

Oc1ccccc1C=NC1CCCCC1N=Cc1ccccc1O.[Cu] (stereo not given)
inactive: [1] 88 % of control | [2] 88 % of control | dose: 400.0 mg/kg/injection, schedule: Q04DX002 (ip), vehicle: saline with Tween-80 91 % of control

N#CC(C#N)=NNc1cccc(Cl)c1Cl
inactive: dose: 5.0 mg/kg/injection, schedule: Q04DX003 (ip), vehicle: saline with Tween-80 106 % of control | dose: 10.0 mg/kg/injection, schedule: Q04DX003 (ip), vehicle: saline with Tween-80 104 % of control | dose: 20.0 mg/kg/injection, schedule: Q04DX003 (ip), vehicle: saline with Tween-80 101 % of control

CCn1c(C)nc2cc(C(N)=O)ccc21
inactive: [3] 97 % of control | [4] 100 % of control | [5] 91 % of control | [6] 96 % of control | [7] 102 % of control

N#Cc1nc2c(n(O)c1=N)CCC/C2=N\O
inactive: [8] 98 % of control | [9] 98 % of control | [10] 91 % of control

C[Si](C)(C)Nc1ncnc2c1ncn2[Si](C)(C)C
inactive: [3] 94 % of control | [4] 103 % of control | [5] 105 % of control | [6] 103 % of control | [11] 106 % of control | [7] 101 % of control

CC(=O)O.[Ag]
inactive: dose: 5.0 mg/kg/injection, schedule: Q01DX001 (ip), vehicle: saline 93 % of control | dose: 10.0 mg/kg/injection, schedule: Q01DX001 (ip), vehicle: saline 96 % of control | dose: 20.0 mg/kg/injection, schedule: Q01DX001 (ip), vehicle: saline 97 % of control | dose: 40.0 mg/kg/injection, schedule: Q01DX001 (ip), vehicle: saline 100 % of control | dose: 80.0 mg/kg/injection, schedule: Q01DX001 (ip), vehicle: saline 100 % of control | [12] 91 % of control

CC12OC3(C)C4C(=O)OC1C1(C)OC4(C)C3C(=O)OC21
inactive: [12] 106 % of control | dose: 100.0 mg/kg/injection, schedule: Q04DX003 (ip), vehicle: saline 100 % of control | dose: 200.0 mg/kg/injection, schedule: Q01DX001 (ip), vehicle: saline 102 % of control | dose: 200.0 mg/kg/injection, schedule: Q04DX003 (ip), vehicle: saline 102 % of control | dose: 400.0 mg/kg/injection, schedule: Q01DX001 (ip), vehicle: saline 100 % of control | dose: 400.0 mg/kg/injection, schedule: Q04DX003 (ip), vehicle: saline 97 % of control

OCNC(=S)c1c(Cl)cccc1Cl
inactive: [3] 98 % of control | [5] 102 % of control

CC(=O)c1cccc(NS(=O)(=O)c2ccc(C)cc2)c1
inactive: [4] 97 % of control | [6] 99 % of control | [7] 99 % of control

N#C[C@H](OC1OC(COC2OC(CO)C(O)C(O)C2O)C(O)C(O)C1O)c1ccccc1 (stereo not given in full)
inactive: dose: 25.0 mg/kg/injection, schedule: Q01DX009 (ip), vehicle: saline 98 % of control | [13] 96 % of control | dose: 50.0 mg/kg/injection, schedule: Q01DX009 (ip), vehicle: saline 97 % of control | [14] 103 % of control | dose: 100.0 mg/kg/injection, schedule: Q01DX009 (ip), vehicle: saline 101 % of control | [15] 96 % of control | dose: 200.0 mg/kg/injection, schedule: Q01DX009 (ip), vehicle: saline 104 % of control | [16] 96 % of control | dose: 400.0 mg/kg/injection, schedule: Q01DX009 (ip), vehicle: saline 98 % of control | [17] 105 % of control | dose: 800.0 mg/kg/injection, schedule: Q01DX009 (ip), vehicle: saline 107 % of control | dose: 800.0 mg/kg/injection, schedule: Q01DX009 (ip), vehicle: water 102 % of control

ClCc1ccc(CCl)c(Cl)c1Cl
inactive: [4] 96 % of control

Nc1ccc(OC(=O)c2ccccc2)cc1
inactive: dose: 12.5 mg/kg/injection, schedule: Q01DX001 (ip), vehicle: saline with Tween-80 92 % of control | [18] 91 % of control | dose: 25.0 mg/kg/injection, schedule: Q01DX001 (ip), vehicle: saline with Tween-80 90 % of control | dose: 25.0 mg/kg/injection, schedule: Q01DX009 (ip), vehicle: saline with Tween-80 86 % of control | dose: 50.0 mg/kg/injection, schedule: Q01DX001 (ip), vehicle: saline with Tween-80 90 % of control

CCN(CC)CCCC(C)NC(c1ccc2c(c1)Sc1ccccc1O2)[P+](=O)O (stereo not given)
inactive: [19] 97 % of control | dose: 100.0 mg/kg/injection, schedule: Q01DX001 (ip), vehicle: saline sonified 95 % of control | [1] 90 % of control | dose: 200.0 mg/kg/injection, schedule: Q01DX001 (ip), vehicle: saline sonified 91 % of control | [2] 97 % of control

Nc1nc2ccc(CN(C=O)c3ccc(C(=O)NC(CCC(=O)O)C(=O)O)cc3)cc2c(=O)[nH]1 (stereo not given)
inactive: dose: 6.25 mg/kg/injection, schedule: Q01DX009 (ip), vehicle: water 94 % of control | dose: 12.5 mg/kg/injection, schedule: Q01DX009 (ip), vehicle: water 102 % of control | [13] 105 % of control | [14] 107 % of control | [15] 119 % of control | [16] 107 % of control | [17] 100 % of control

COc1ccc(-c2sc(/N=C/c3ccc(-c4ccccc4)cc3)c(C#N)c2C)cc1OC
inactive: [3] 97 % of control | [5] 100 % of control | [11] 91 % of control

Cc1nc(NN)c([N+](=O)[O-])c(NN)n1
inactive: [8] 89 % of control | [9] 95 % of control | [10] 102 % of control

O=[N+]([O-])c1ccccc1-c1nn(-c2ccccc2)c2ccccc12
inactive: dose: 12.5 mg/kg/injection, schedule: Q04DX002 (ip), vehicle: saline with Tween-80 102 % of control | dose: 25.0 mg/kg/injection, schedule: Q04DX002 (ip), vehicle: saline with Tween-80 105 % of control | [19] 90 % of control

CCOC(=O)/C=C1\NC(=O)N(CCCN2C(=O)N/C(=C\C(=O)OCC)C2=O)C1=O
inactive: dose: 3.13 mg/kg/injection, schedule: Q01DX009 (ip), vehicle: saline with Tween-80 95 % of control | dose: 6.25 mg/kg/injection, schedule: Q01DX009 (ip), vehicle: saline with Tween-80 98 % of control | [18] 95 % of control | dose: 50.0 mg/kg/injection, schedule: Q01DX009 (ip), vehicle: saline with Tween-80 92 % of control
